The values that follow come from article PMC7297445, “Pharmacokinetic/Pharmacodynamic Determination and Preclinical Pharmacokinetics of the β-Lactamase Inhibitor ETX1317 and Its Orally Available Prodrug ETX0282” (ACS Infectious Diseases, 2020).

By MIC is commonly meant the lowest concentration that inhibits growth of the organism.

One data set has as its system E. coli ARC2687. The experiment in a line: MIC, broth microdilution (CLSI). It counts as cell-based. Conditions: Escherichia coli, ARC2687; combination at 1:2 ratio cefpodoxime:ETX1317, MIC of CPD. The procedure:
(§1) MICs were determined utilizing a 1:2 ratio of cefpodoxime:ETX1317. […] The isolates utilized in the present study (Table 1) were broadly insensitive to CPD, presumably due to the presence of ESBLs and carbapenemases expressed in these strains. The addition of ETX1317 restored CPD activity to ≤1 μg/mL across all the tested isolates.
(§2) The MIC of each isolate was determined using the broth microdilution method following CLSI guidelines of document M07-A7 (CLSI M07-A7).
A general note: Broth dilution looks for growth in wells or tubes with falling amounts of substance.

In another data set the test system is E. coli ARC4419. The experiment in a line: MIC, broth microdilution (CLSI). It is filed as cell-based. The conditions noted are these: Escherichia coli, combination at 1:2 ratio cefpodoxime:ETX1317, MIC of CPD. The method, then:
as §1, §2

For the next data set, the system named is E. coli NMC101. The experiment in a line: MIC, broth microdilution (CLSI). It is filed as cell-based. The conditions noted are these: Escherichia coli, combination at 1:2 ratio cefpodoxime:ETX1317, MIC of CPD. The method, then: as §1, §2
For the next data set, the system named is K. pneumoniae ARC4488. The experiment in a line: MIC, broth microdilution (CLSI). The conditions noted are these: Klebsiella pneumoniae, ARC4488; combination at 1:2 ratio cefpodoxime:ETX1317, MIC of CPD. It counts as cell-based. The method, then: as §1, §2
Another data set deals with K. pneumoniae ARC4420. Kind of data set: Chemostat in vitro infection model, dose fractionation. It is filed as cell-based. The conditions noted are these: with CPD. The procedure: (§3) The PK/PD driver of ETX1317 was assessed in the presence of CPD in both hollow-fiber[28]−[31] and chemostat[32]in vitro infection model systems. In all cases, CPD was administered q12h via a 2 h infusion and eliminated with a 2 h half-life, with the concentration of drug exceeding the MIC (the MIC of CPD in the presence of ETX1317 at a 1:2 ratio) for 50% of the dosing interval for each strain. Representative Emax plots are shown graphically for Escherichia coli ARC2687 in the hollow-fiber model and Klebsiella pneumoniae ARC4420 in the chemostat system (Figure 2). […] This could partially be attributed to the distribution of the concentration ranges utilized for the hollow-fiber infection model (HFIM) where most of the data scatter occurred in the efficacious dose range for lower MIC strains. It is important to note that initial evaluation of K. pneumoniae ARC4420 and ARC5118 was completed in the HFIM but rapid degradation of CPD, presumably through accumulation of β-lactamases in the extra-capillary space of the cartridge precluded a reliable assessment of the PK/PD driver with these strains in this model.[32] […] In both the HFIM and chemostat models the optimum critical threshold of ETX1317 was established through iterative Emax fitting of a range of ETX1317 concentrations from 0.5× to 2× the CPD:ETX1317 MIC value. In the HFIM, %Time > ETX1317 CT of 2× MIC provided the highest correlation to observed activity which appeared to be independent to the apparent intrinsic activity of ETX1317 (as reflected by ETX1317 MICBLI of K. pneumoniae ARC4486 vs ARC4488). […] In both models CPD infused alone mimicked vehicle control as expected with similar growth of +2 to 4 log10 CFU/mL.
(§4) Enterobacteriaceae isolates E. coli ARC2687 and K. pneumoniae isolates ARC4486, ARC4488, ARC5118, and ARC4420 were prepared for infection from an overnight plate culture. On the day of the experiment, a few colonies of bacteria were inoculated in Mueller Hinton Broth II (MHBII, Sigma-Aldrich, St. Louis, MO) and incubated at 35 °C until reaching log-phase growth, about 1 h. In hollow-fiber studies cell population density is confirmed by turbidimetric assay (OD600) and final dilution is adjusted to deliver approximately 15 mL of bacteria (1 × 10^6 CFU/mL) to the extra-capillary space of the hollow-fiber cartridge (Fibercell Systems, Inc., Frederick, MD). After 1 h, targeted drug concentrations were introduced using a 2 h infusion via a syringe pump (Harvard Apparatus, Holliston, MA). […]
(§5) Dose range and dose fractionation were performed in hollow-fiber infection model (HFIM) and chemostat (one-compartment) in vitro infection model. […] CPD concentrations were targeted to achieve exposure of ∼50%Time > MIC determined in the presence of ETX1317. […]

A further data set has as its system K. pneumoniae ARC5118. The description is as above. It is filed as cell-based. Conditions: with CPD. The procedure:
as §3, §4, §5

A further data set can be described thus: Plasma protein binding. It is filed as in vitro ADME, human. The method, then:
Plasma protein binding was determined by rapid equilibrium dialysis. Plasma was freshly prepared from blood samples drawn in to EDTA (anticoagulant) containing tubes. Plasma was prepared using a table-top centrifuge and spun per instruction of the tube manufacturer and specifications (Beckton, Dickinson and Company, Franklin Lakes, NJ) and placed on ice prior to use.
Pooled plasma samples were centrifuged at 2000 rpm (approximately 1400g) for 15 min at 4 °C to remove debris. Approximately 90% of the clear supernatant fraction was transferred to a separate tube. Samples (500 μL) were then spiked with a 100× stock solution 100 μM, 0.5 mM, and 10 mM ETX1317 in DMSO respectively for 1, 5, and 100 μM final concentrations, transferred to the top of the filter chambers, and allowed to equilibrate for 15 min prior to centrifugation. The filtrate tubes were centrifuged at 14000g for 15 min at 4 °C. Next, 50 μL of the filtrate was precipitated with 300 μL of acetonitrile containing 250 ng/mL of carbutamide as the internal standard and the samples were analyzed by LC/MS/MS analysis.

The nature of another data set: Excretion into the bile. The conditions noted are these: in vivo. The method, then: Based upon the non-clinical PK data, a range of 60–80% bioavailability and a moderate absorption rate of 0.5–1.0 h^–1 have been considered for humans. In consideration of these predicted parameters, mean percent fT > CT of 1 μg/mL (2× MIC of 0.5 μg/mL) estimates for a 500 mg ETX1317 equiv q12h dose of ETX0282 are summarized in Table S3.

For `CC1=C[C@@H](C(N)=O)N2C[C@@H]1N(O[C@H](F)C(=O)O)C2=O` [ETX1317], the MIC in the data set on E. coli ARC2687 was 0.5 µg/mL; with E. coli ARC4419, 0.25 µg/mL; in the data set on E. coli NMC101, 1 µg/mL; in the data set with K. pneumoniae ARC4488, 0.5 µg/mL. For the same compound, the “%Time > CT of 1 μg/mL for 1–log10 kill” value in the data set on K. pneumoniae ARC4420 worked out at 63%; in the data set on K. pneumoniae ARC5118 it was 65%. Moreover, the “%Time > CT of 1 μg/mL for stasis” value in the data set on K. pneumoniae ARC4420 amounted to 59%; with K. pneumoniae ARC5118, 60%. The results for the Proportion unbound in “Plasma protein binding” (1 µM), in the data set “Plasma protein binding” (5 µM) and in the data set “Plasma protein binding” (100 µM) were 82%, 99% and 80%, respectively. Moreover, in the data set “Excretion into the bile”, the “excretion into the bile” value is recorded as “minimal excretion”.
